Experimental data as given in ChEMBL document CHEMBL1139498, “Discovery of potent, orally available vanilloid receptor-1 antagonists. Structure-activity relationship of N-aryl cinnamides” (J Med Chem, 2005).

Columns and labels:
[1] = target: T1, Transient receptor potential cation channel subfamily V member 1 (Homo sapiens, UniProt Q8NER1); assay: Agonistic activity for transient receptor potential vanilloid type 1 expressed in CHO cells; type: functional, cell-based
[2] = target: T1, Transient receptor potential cation channel subfamily V member 1; assay: Inhibition of pH-induced calcium uptake by transient receptor potential vanilloid type 1 expressed in CHO cells; type: functional, cell-based
[3] = target: T1, Transient receptor potential cation channel subfamily V member 1; assay: Inhibition of capsaicin-induced calcium uptake by transient receptor potential vanilloid type 1 expressed in CHO cells; type: functional, cell-based
[4] = Plasma clearance in rat after intravenous administration of 2 mg/kg; type: ADME, organism-based; design: dose 2 mg/kg, route intravenous
[5] = Area under concentration time curve from time 0 to infinity was determined in rat after intravenous administration of 2 mg/kg; type: ADME, organism-based; design: time infinity, dose 2 mg/kg, route intravenous; conditions: in vivo
[6] = Half life in rat after intravenous administration of 2 mg/kg; type: ADME, organism-based; design: dose 2 mg/kg, route intravenous; conditions: in vivo
[7] = Oral bioavailability in rat (dose 5 mg/kg); type: ADME, organism-based; conditions: in vivo
[8] = Area under concentration time curve from time 0 to infinity was determined in rat after oral administration of 5 mg/kg; type: ADME, organism-based; design: time infinity, dose 5 mg/kg, route oral; conditions: in vivo
[9] = Steady state volume of distribution in rat after intravenous administration of 2 mg/kg; type: ADME, organism-based; design: dose 2 mg/kg, route intravenous; conditions: in vivo, read-out: Vss
[10] = Peak plasma concentration in rat after oral administration of 5 mg/kg; type: ADME, organism-based; design: dose 5 mg/kg, route oral
[11] = Maximum time required to attain Cmax in rat after oral administration of 5 mg/kg; type: ADME, organism-based; design: dose 5 mg/kg, route oral; conditions: in vivo
[12] = Plasma clearance in rat after intravenous administration of 3 mg/kg; type: ADME, organism-based; design: dose 3 mg/kg, route intravenous
[13] = Area under concentration time curve from time 0 to infinity was determined in rat after intravenous administration of 3 mg/kg; type: ADME, organism-based; design: time infinity, dose 3 mg/kg, route intravenous; conditions: in vivo
[14] = Half life in rat after intravenous administration of 3 mg/kg; type: ADME, organism-based; design: dose 3 mg/kg, route intravenous; conditions: in vivo
[15] = Steady state volume of distribution in rat after intravenous administration of 3 mg/kg; type: ADME, organism-based; design: dose 3 mg/kg, route intravenous; conditions: in vivo, read-out: Vss

T1 sequence (Q8NER1 whole entry): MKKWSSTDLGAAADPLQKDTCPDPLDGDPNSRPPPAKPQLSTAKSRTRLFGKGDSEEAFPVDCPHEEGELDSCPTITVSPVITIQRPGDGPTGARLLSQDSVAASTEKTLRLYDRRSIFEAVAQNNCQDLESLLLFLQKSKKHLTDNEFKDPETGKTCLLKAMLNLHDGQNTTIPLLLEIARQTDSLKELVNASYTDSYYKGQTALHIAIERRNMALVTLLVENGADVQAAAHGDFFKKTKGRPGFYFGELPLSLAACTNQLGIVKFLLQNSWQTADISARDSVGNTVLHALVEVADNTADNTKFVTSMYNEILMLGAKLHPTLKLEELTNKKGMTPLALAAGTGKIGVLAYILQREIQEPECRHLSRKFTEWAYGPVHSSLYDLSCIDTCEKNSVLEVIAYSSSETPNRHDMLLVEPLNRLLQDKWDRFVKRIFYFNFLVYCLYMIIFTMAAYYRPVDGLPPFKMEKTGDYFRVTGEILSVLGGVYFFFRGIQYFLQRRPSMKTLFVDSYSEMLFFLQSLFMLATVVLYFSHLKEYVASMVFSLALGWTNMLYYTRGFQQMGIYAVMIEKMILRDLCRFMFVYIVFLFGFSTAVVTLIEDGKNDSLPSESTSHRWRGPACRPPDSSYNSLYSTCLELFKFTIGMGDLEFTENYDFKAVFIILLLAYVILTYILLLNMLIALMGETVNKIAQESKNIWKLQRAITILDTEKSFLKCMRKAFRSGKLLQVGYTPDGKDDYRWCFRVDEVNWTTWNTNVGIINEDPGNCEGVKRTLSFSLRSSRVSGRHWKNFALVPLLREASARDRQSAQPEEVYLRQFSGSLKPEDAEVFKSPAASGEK

Compound | IC50 [2] [nM] | IC50 [3] [nM] | further results
COc1cc(NC(=O)/C=C/c2ccc(C(C)(C)C)cc2)ccc1O |  |  | EC50 [1]: 440 nM
CN(C(=O)/C=C/c1ccc(C(C)(C)C)cc1)c1ccc2c(c1)OCCO2 | > 4000 | > 4000 | 
O=C(/C=C/c1ccc(C(F)(F)F)nc1N1CCOCC1)Nc1ccc2cccnc2c1 | 1.3 | 1.9 | clearance ([4]; plasma): 15 mL/min/kg; AUC [5]: 2300 ng·h/mL; half-life [6]: 0.9 h; bioavailability [7]: 39%; AUC(0-inf) [8]: 2600 ng·h/mL; Vd [9]: 1.1 L/kg; Cmax [10]: 540 ng/mL; Tmax [11]: 1.5 h
CC(C)(C)c1ccc(/C=C/C(=O)Nc2ccc3c(c2)NC(=O)CC3)cc1 | 71 |  | 
CC(C)(C)c1ccc(CCC(=O)Nc2ccc3c(c2)OCCO3)cc1 | 660 | 150 | 
CC(C)(C)c1ccc(C2CC2C(=O)Nc2ccc3c(c2)OCCO3)cc1 (centres undefined) | > 4000 | 1800 | 
O=C(/C=C/c1ccc(C(F)(F)F)cc1)Nc1ccc2c(c1)OCCO2 | 100 | 46 | 
CC(C)(C)c1ccc(/C=C/C(=S)Nc2ccc3c(c2)OCCO3)cc1 | 1400 | 280 | 
CC(C)(C)c1ccc(/C=C/CNc2ccc3c(c2)OCCO3)cc1 | > 4000 | > 4000 | 
CC(C)(C)c1ccc(/C=C/C(=O)Nc2ccc3c(c2)OCCO3)c(Br)c1 | 470 | 60 | 
O=C(/C=C/c1ccc(-c2ccccc2)cc1)Nc1ccc2c(c1)OCCO2 | > 4000 | > 4000 | 
CC(C)(C)c1ccc(/C=C/C(=O)Nc2ccc3cccnc3c2)cc1 | 2.02 |  | 
COc1ccc(/C=C/C(=O)Nc2ccc3c(c2)OCCO3)cc1 | > 4000 | 1800 | 
CC/C(=C\c1ccc(C(C)(C)C)cc1)C(=O)Nc1ccc2c(c1)OCCO2 | 800 | 210 | 
C/C(=C\c1ccc(C(C)(C)C)cc1)C(=O)Nc1ccc2c(c1)OCCO2 | 600 |  | 
CC(C)(C)c1ccc(/C(=C/C(=O)Nc2ccc3c(c2)OCCO3)c2ccncc2)cc1 | 660 | 44 | 
O=C(/C=C/c1ccc(F)cc1)Nc1ccc2c(c1)OCCO2 | > 4000 | 1000 | 
CC(C)(C)c1ccc(/C=C/C(=O)Nc2ccc3c(c2)NCCC3)cc1 | 160 | 36 | 
COc1ccc(NC(=O)/C=C/c2ccc(C(C)(C)C)cc2)cc1OC | > 4000 | 170 | 
CC(C)(C)c1ccc(/C(=C/C(=O)Nc2ccc3c(c2)OCCO3)c2ccccc2)cc1 | 120 | 20 | 
O=C(/C=C/c1ccccc1)Nc1ccc2c(c1)OCCO2 | > 4000 | > 4000 | 
CC(C)(C)c1ccc(/C(=C/C(=O)Nc2ccc3c(c2)OCCO3)c2cccnc2)cc1 | 510 | 78 | 

Compound | IC50 [2] [nM] | IC50 [3] [nM] | further results
O=C(/C=C/c1ccc(O)cc1)Nc1ccc2c(c1)OCCO2 | > 4000 | > 4000 | 
CC(C)(C)c1ccc(/C=C/C(=O)Nc2ccc3c(c2)OCO3)cc1 | > 4000 | 570 | 
O=C(/C=C/c1ccc(C(F)(F)F)nc1N1CCOCC1)Nc1ccc2c(c1)OCCO2 | 40 | 15 | 
CC(C)(C)c1cccc(/C=C/C(=O)Nc2ccc3c(c2)OCCO3)c1 | > 4000 | 620 | 
CC(C)(C)c1ccc(/C=C/C(=O)Nc2ccc3c(c2)OCCO3)cc1 (stereo in doubt; 34) | 3200 |  | 
CC(C)(C)c1ccc(/C(=C/C(=O)Nc2ccc3c(c2)OCCO3)Cc2ccccc2)cc1 | 110 | 14 | 
COc1ccc(NC(=O)/C=C/c2ccc(C(C)(C)C)cc2)cc1O | > 4000 |  | 
CC(C)(C)c1ccc(/C=C/C(=O)Nc2ccc3c(c2)NCCO3)cc1 | > 4000 | 110 | 
CCCCc1ccc(/C=C/C(=O)Nc2ccc3c(c2)OCCO3)cc1 | 2700 | 360 | 
CC(C)c1ccc(/C=C/C(=O)Nc2ccc3c(c2)OCCO3)cc1 | 82 | 55 | 
CC(C)(C)c1ccc(C(=CC(=O)Nc2ccc3c(c2)OCCO3)c2ccc(C(C)(C)C)cc2)cc1 | > 4000 | 2700 | 
O=C(/C=C/c1ccc(C(F)(F)F)nc1N1CCCCC1)Nc1ccc2cccnc2c1 | 1 | 0.42 | CL ([4]; in vivo): 13 mL/min/kg; AUC [5]: 2100 ng·h/mL; half-life [6]: 2.9 h; F [7]: 17%; AUC [8]: 2400 ng·h/mL; Vd [9]: 2.8 L/kg; Cmax [10]: 320 ng/mL; Tmax [11]: 2 h
O=C(/C=C/c1ccc(Br)cc1)Nc1ccc2c(c1)OCCO2 | 370 | 110 | 
CC(C)(C)c1ccc(/C=C/C(=O)Nc2ccc3c(c2)OCCO3)nc1 | 2900 | 500 | 
CCOC(=O)CC/C(=C\C(=O)Nc1ccc2c(c1)OCCO2)c1ccc(C(C)(C)C)cc1 | 290 | 36 | 
O=C(/C=C/c1ccc(C(F)(F)F)nc1)Nc1ccc2c(c1)OCCO2 | 1290 | 870 | 
COc1cccc(NC(=O)/C=C/c2ccc(C(C)(C)C)cc2)c1 | > 4000 | 21 | 
COc1ccc(NC(=O)/C=C/c2ccc(C(C)(C)C)cc2)cc1 | > 4000 | 140 | 
Cc1nc(C(F)(F)F)ccc1/C=C/C(=O)Nc1ccc2c(c1)OCCO2 | 870 | 360 | 
CC(C)(C)c1ccc(/C=C/C(=O)Nc2ccc3c(c2)NC(=O)CO3)cc1 | > 4000 | 6.5 | 
CC(C)(C)c1ccc(/C=C/C(=O)Nc2ccc3c(c2)OCCO3)cn1 | 2400 | 100 | 
CC(C)(C)c1ccc(/C=C/C(=O)Nc2ccc3c(c2)OCC(=O)N3)cc1 | > 4000 | 270 | 

Compound | IC50 [2] [nM] | IC50 [3] [nM] | further results
CC(C)(C)c1ccc(/C=C/C(=O)Nc2ccccc2)cc1 | > 4000 |  | 
CN(C)CCC/C(=C\C(=O)Nc1ccc2c(c1)OCCO2)c1ccc(C(C)(C)C)cc1 | > 4000 | 3900 | 
CC(C)(C)c1ccc(/C=C/C(=O)Oc2ccc3c(c2)OCCO3)cc1 | 3200 |  | 
Oc1cc2c(cc1O)CN(C(=S)NCCc1ccc(Cl)cc1)CCC2 [CAPSAZEPINE] |  | 420 | 
CC(C)(C)c1ccc(/C=C/C(=O)Nc2ccc3c(c2)OCCO3)c(C(=O)O)c1 | > 4000 | > 4000 | 
O=C(/C=C/c1ccc(Cl)cc1)Nc1ccc2c(c1)OCCO2 | 320 | 250 | 
CC(C)(C)c1ccc(/C=C/C(=O)Nc2ccc3c(c2)OCCN3)cc1 | 57 | 16 | 
Cc1ccc(/C=C/C(=O)Nc2ccc3c(c2)OCCO3)cc1 | 1100 | 210 | 
CC(C)(C)c1ccc(/C=C(/C(=O)Nc2ccc3c(c2)OCCO3)c2ccccc2)cc1 | > 4000 | > 4000 | 
CC(C)(C)c1ccc(/C(=C/C(=O)Nc2ccc3c(c2)OCCO3)CCC(=O)O)cc1 | > 4000 | > 4000 | 
CC(C)Cc1ccc(/C=C/C(=O)Nc2ccc3c(c2)OCCO3)cc1 | 860 | 360 | 
CC(C)(C)c1ccc(/C(=C/C(=O)Nc2ccc3c(c2)OCCO3)c2ccc(C(F)(F)F)cc2)cc1 | 180 | 25 | 
CC(C)(C)c1ccc(/C=C/C(=O)Nc2ccc3c(c2)OCCO3)cc1 (stereo in doubt; 1) | 150 | 17 | clearance [12]: 73.3 mL/min/kg; bioavailability [7]: 3%; AUC(0-inf) [8]: 24 ng·h/mL; AUC [13]: 680 ng·h/mL; half-life [14]: 1.1 h; Cmax [10]: 25 ng/mL; Vd [15]: 2.1 L/kg; Tmax [11]: 0.5 h
CC(C)C/C(=C\C(=O)Nc1ccc2c(c1)OCCO2)c1ccc(C(C)(C)C)cc1 | 94 | 16 | 
CCOC(=O)c1cc(C(C)(C)C)ccc1/C=C/C(=O)Nc1ccc2c(c1)OCCO2 | 26 | 15 | 
C/C(=C\C(=O)Nc1ccc2c(c1)OCCO2)c1ccc(C(C)(C)C)cc1 | 430 |  | 
COc1ccccc1NC(=O)/C=C/c1ccc(C(C)(C)C)cc1 | > 4000 | 550 | 
CCc1ccc(/C=C/C(=O)Nc2ccc3c(c2)OCCO3)cc1 | 220 | 170 | 
O=C(/C=C/c1ccc([N+](=O)[O-])cc1)Nc1ccc2c(c1)OCCO2 | 440 | 190 | 
CC(C)(C)c1ccc(/C=C/C(=O)Nc2ccc3c(c2)CCCC3)cc1 | 960 | 61 | 
O=C(/C=C/c1ccc(C(F)(F)F)nc1N1CCCCC1)Nc1ccc2c(c1)OCCO2 | 54 | 27 | 
